Source: patent US11524940B1, “Inhibitors of cysteine proteases and methods of use thereof” (priority 2020, dated 2022)

The compounds below were run against 229E Mpro (Human coronavirus 229E (HCoV-229E), UniProt P0C6X1) (assay: 229E Mpro activity). Settings: 229E Mpro EC50.
Chain of 229E Mpro (P0C6X1 2966-3267 limits assumed): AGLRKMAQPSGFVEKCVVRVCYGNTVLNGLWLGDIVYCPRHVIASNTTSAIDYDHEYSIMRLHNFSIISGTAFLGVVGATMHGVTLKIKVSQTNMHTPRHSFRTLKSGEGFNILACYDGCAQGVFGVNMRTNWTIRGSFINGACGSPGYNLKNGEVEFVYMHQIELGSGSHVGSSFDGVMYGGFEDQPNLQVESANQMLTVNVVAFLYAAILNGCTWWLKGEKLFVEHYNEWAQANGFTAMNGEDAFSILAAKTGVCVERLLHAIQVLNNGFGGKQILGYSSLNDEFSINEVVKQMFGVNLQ
Type: biochemical
Procedure: Compounds are assayed using standard methods to assess compound activity and IC50. […] The assay buffer contains 20 mM of Tris-HCl (pH 7.3), 100 mM of NaCl, 1 mM of EDTA, 5mM of TCEP and 0.1% BSA.
Work on `COc1cccc2[nH]c(C(=O)N[C@H](CC(C)C)C(=O)N[C@@H](CC3CCNC3=O)C(=O)CO)cc12` (stereo partly drawn) [Compound 740, N-[(1R)-1-[[(1S)-3-hydroxy-2-oxo-1-[[(3S)-2-oxopyrrolidin-3-yl]methyl]propyl]carbamoyl]-3-methyl-butyl]-4-methoxy-1H-indole-2-carboxamide] yielded an EC50 of 10000 to 30000 nM. In the case of `COCCOCCOc1cccc2[nH]c(C(=O)NC(CC(C)(C)C)C(=O)NC(C#N)CC3CCCNC3=O)cc12` (single isomer, unassigned) [875 (Isomer 2)], the EC50 is reported as under 2000 nM.

Same assay, conditions: read-out: 229E Mpro EC50
Work on `CC[C@H]1CN(C(=O)c2cc3c(OC)cccc3[nH]2)[C@@H]1C(=O)N[C@H](C#N)C[C@@H]1CCNC1=O` [Compound 391, (2S,3S)-N-((S)-1-cyano-2-((S)-2-oxopyrrolidin-3-yl)ethyl)-3-ethyl-1-(4-methoxy-1H-indole-2-carbonyl)azetidine-2-carboxamide] yielded an EC50 of over 30000 nM. `N#C[C@H](C[C@@H]1CCNC1=O)NC(=O)[C@H](CC1CC1)NC(=O)c1nc2c(Cl)cc(Cl)cc2[nH]1` [Compound 525, 4,6-dichloro-N-[(1S)-2-[[(1S)-1-cyano-2-[(3S)-2-oxopyrrolidin-3-yl]ethyl]amino]-1-(cyclopropylmethyl)-2-oxo-ethyl]-1H-benzimidazole-2-carboxamide] gave an EC50 of under 2000 nM. Compound `COc1cccc2[nH]c(C(=O)N[C@@H](CC(C)C)C(=O)N[C@@H](C[C@@H]3CCNC3=O)C(C#N)N3CCCC3)cc12` (single isomer, unassigned) [331 (Isomer 1)] has an EC50 of under 2000 nM. Compound `COCCOCCOc1cccc2[nH]c(C(=O)NC(CC(C)(C)C)C(=O)NC(C#N)CC3CCCNC3=O)cc12` (single isomer, unassigned) [875 (Isomer 1)] has an EC50 of under 2000 nM. For `COc1cccc2[nH]c(C(=O)N3C[C@H](c4ccccc4)C[C@H]3C(=O)N[C@@H](C[C@@H]3CCNC3=O)C(O)C#N)cc12` (single isomer, unassigned) [345 (Isomer 2)], the EC50 was under 2000 nM. `COc1ccc2[nH]c(C(=O)N[C@@H](CC3CC3)C(=O)N[C@H](C#N)C[C@@H]3CCCNC3=O)cc2n1` [Compound 621, N-[(1S)-2-[[(1S)-1-cyano-2-[(3S)-2-oxo-3-piperidyl]ethyl]amino]-1-(cyclopropylmethyl)-2-oxo-ethyl]-5-methoxy-1H-pyrrolo[3,2-b]pyridine-2-carboxamide] showed an EC50 of under 2000 nM. `COc1cccc2[nH]c(C(=O)N3CC(C)(C)C[C@H]3C(=O)N[C@H](C#N)C[C@@H]3CCNC3=O)cc12` (single isomer, unassigned) [395 (Isomer 1)] showed an EC50 of under 2000 nM. Work on `N#C[C@H](C[C@@H]1CCCNC1=O)NC(=O)C1CC2(CCC2)CN1C(=O)c1cc2cccc(Cl)c2[nH]1` (single isomer, unassigned) [729 (Isomer 2)] yielded an EC50 of under 2000 nM. Compound `CN1CCCC[C@]12CCN([C@@H](CC1CC1)C(=O)N[C@H](C#N)C[C@@H]1CCNC1=O)C2=O` [Compound 273C, (2S)-N-[(1S)-1-cyano-2-[(3S)-2-oxopyrrolidin-3-yl]ethyl]-3-cyclopropyl-2-[(5R)-6-methyl-1-oxo-2,6-diazaspiro[4.5]decan-2-yl]propanamide] has an EC50 of 2000 to 10000 nM. In the case of `N#C[C@H](C[C@@H]1CCCNC1=O)NC(=O)[C@H](CC1CC1)NC(=O)c1cc2ccc(F)c(Cl)c2[nH]1` [Compound 828, 7-chloro-N-[(1S)-2-[[(1S)-1-cyano-2-[(3S)-2-oxo-3-piperidyl]ethyl]amino]-1-(cyclopropylmethyl)-2-oxo-ethyl]-6-fluoro-1H-indole-2-carboxamide], the EC50 is reported as under 2000 nM. `COc1cccc2[nH]c(C(=O)N3CC4(CCC4)CC3C(=O)N[C@H](C#N)C[C@@H]3CCCNC3=O)cc12` (single isomer, unassigned) [719 (Isomer 2)] showed an EC50 of under 2000 nM. In the case of `CC(C)(C)OC(=O)N1CCCCC12CCN(C(CC1CC1)C(=O)N[C@H](C#N)C[C@@H]1CCNC1=O)C2=O` (single isomer, unassigned) [473 (Isomer 2)], the EC50 is reported as over 30000 nM. Work on `COc1cccc2[nH]c(C(=O)N[C@@H](CC(C)C)C(=O)NC(C#N)CC3CC(=O)Nc4ccccc43)cc12` (mixture of isomers) [Compound 249, N-[(1S)-1-[[1-cyano-2-(2-oxo-3,4-dihydro-1H-quinolin-4-yl)ethyl]carbamoyl]-3-methyl-butyl]-4-methoxy-1H-indole-2-carboxamide] yielded an EC50 of over 30000 nM. Compound `N#C[C@H](C[C@@H]1CCNC1=O)NC(=O)[C@H](CC1CC1)NC(=O)c1cc2c(OCCN3CCOCC3)cccc2[nH]1` [Compound 515, N-[(1S)-2-[[(1S)-1-cyano-2-[(3S)-2-oxopyrrolidin-3-yl]ethyl]amino]-1-(cyclopropylmethyl)-2-oxo-ethyl]-4-(2-morpholinoethoxy)-1H-indole-2-carboxamide] has an EC50 of under 2000 nM. Compound `COc1cccc2[nH]c(C(=O)N[C@@H](CC(C)C)C(=O)N[C@@H](C[C@@H]3CCNC3=O)C(C#N)NCC(=O)O)cc12` (single isomer, unassigned) [653 (Isomer 1)] has an EC50 of under 2000 nM. `N#C[C@H](C[C@@H]1CCCNC1=O)NC(=O)[C@H](CC1CC1)NC(=O)c1cc2c(Cl)cncc2[nH]1` [Compound 669, 4-chloro-N-((S)-1-(((S)-1-cyano-2-((S)-2-oxopiperidin-3-yl)ethyl)amino)-3-cyclopropyl-1-oxopropan-2-yl)-1H-pyrrolo[2,3-c]pyridine-2-carboxamide] showed an EC50 of under 2000 nM. With `COc1cccc2[nH]c(C(=O)N3CC(C)(C)C[C@H]3C(=O)N[C@H](C#N)C[C@@H]3CCNC3=O)cc12` (single isomer, unassigned) [395 (Isomer 2)] the EC50 was under 2000 nM. Work on `N#C[C@H](C[C@@H]1CCCNC1=O)NC(=O)C1CC2(CCC2)CN1C(=O)c1cc2cccc(Cl)c2[nH]1` (single isomer, unassigned) [729 (Isomer 1)] yielded an EC50 of under 2000 nM. Work on `N#C[C@H](C[C@@H]1CCCNC1=O)NC(=O)[C@H](CC1CC1)NC(=O)c1ccc(Cl)[nH]1` [Compound 864] yielded an EC50 of under 2000 nM. `COc1ccc2[nH]c(C(=O)N[C@@H](CC(C)(C)C)C(=O)N[C@H](C#N)C[C@@H]3CCCNC3=O)cc2c1Cl` [Compound 808, 4-chloro-N-[(1S)-1-[[(1S)-1-cyano-2-[(3S)-2-oxo-3-piperidyl]ethyl]carbamoyl]-3,3-dimethyl-butyl]-5-methoxy-1H-indole-2-carboxamide] showed an EC50 of under 2000 nM. Compound `N#C[C@H](C[C@@H]1CCNC1=O)NC(=O)[C@H](CC1CC1)NC(=O)c1cc2c(Cl)cccc2[nH]1` [Compound 647, 4-chloro-N-[(1S)-2-[[(1S)-1-cyano-2-[(3S)-2-oxopyrrolidin-3-yl]ethyl]amino]-1-(cyclopropylmethyl)-2-oxo-ethyl]-1H-indole-2-carboxamide] has an EC50 of under 2000 nM. Compound `COc1cccc2[nH]c(C(=O)N[C@@H](CC(C)C)C(=O)NC(C#N)Cc3cc[nH]n3)cc12` (mixture of isomers) [Compound 241, N-[(1S)-1-[[1-cyano-2-(1H-pyrazol-3-yl)ethyl]carbamoyl]-3-methyl-butyl]-4-methoxy-1H-indole-2-carboxamide] has an EC50 of over 30000 nM. `COc1cccc2[nH]c(C(=O)N3CC4(CCOCC4)C[C@H]3C(=O)N[C@H](C#N)C[C@@H]3CCNC3=O)cc12` [Compound 387, N-((S)-1-cyano-2-((S)-2-oxopyrrolidin-3-yl)ethyl)-2-(4-methoxy-1H-indole-2-carbonyl)-8-oxa-2-azaspiro[4.5]decane-3-carboxamide] was tested, and the EC50 was over 30000 nM. Work on `COc1cccc2[nH]c(C(=O)N[C@@H](CC(C)C)C(=O)N[C@@H](CC3CCNC3=O)C(C#N)NCc3ccccc3)cc12` (single isomer, unassigned) [507 (Isomer 2.1)] yielded an EC50 of under 2000 nM. `N#C[C@H](C[C@@H]1CCNC1=O)NC(=O)[C@@H]1CS[C@H]2CC[C@H](NC(=O)OCc3ccccc3)C(=O)N21` [Compound 457, Benzyl((3R,6S,8aS)-3-(((S)-1-cyano-2-((S)-2-oxopyrrolidin-3-yl)ethyl)carbamoyl)-5-oxohexahydro-2H-thiazolo[3,2-a]pyridin-6-yl)carbamate] was tested, and the EC50 was over 30000 nM. With `N#C[C@H](C[C@@H]1CCNC1=O)NC(=O)C1CC2(CCCCC2)CN1C(=O)c1cc2ccc(Cl)c(Cl)c2[nH]1` (single isomer, unassigned) [986 (Isomer 1)] the EC50 was under 2000 nM. Compound `COc1cccc2[nH]c(C(=O)N[C@@H](CC(C)C)C(=O)N[C@H](C#N)Cc3cncn3C)cc12` [Compound 225] has an EC50 of over 30000 nM. `CC(C)(C)C[C@H](NC(=O)c1cc2c(F)cccc2[nH]1)C(=O)N[C@H](C#N)C[C@@H]1CCCNC1=O` [Compound 816] was tested, and the EC50 was over 30000 nM. For `CCCNC(=O)OC(C#N)[C@H](C[C@@H]1CCNC1=O)NC(=O)[C@H](CC(C)C)NC(=O)c1cc2c(OC)cccc2[nH]1` (stereo partly shown) [Compound 581], the EC50 was over 30000 nM. `CCNC(C#N)[C@H](C[C@@H]1CCNC1=O)NC(=O)[C@H](CC(C)C)NC(=O)c1cc2c(OC)cccc2[nH]1` (single isomer, unassigned) [511 (Isomer 2)] showed an EC50 of under 2000 nM. For `N#C[C@H](C[C@@H]1CCCNC1=O)NC(=O)[C@H](CC1CC1)NC(=O)c1cc2c(F)ccc(Br)c2[nH]1` [Compound 854], the EC50 was under 2000 nM. In the case of `COc1cccc2[nH]c(C(=O)N[C@H](C(=O)N[C@H](C#N)C[C@@H]3CCNC3=O)[C@@H]3Cc4ccccc4O3)cc12` [Compound 147, N-((S)-2-(((S)-1-cyano-2-((S)-2-oxopyrrolidin-3-yl)ethyl)amino)-1-((S)-2,3-dihydrobenzofuran-2-yl)-2-oxoethyl)-4-methoxy-1H-indole-2-carboxamide], the EC50 is reported as over 30000 nM. Compound `COc1cccc2[nH]c(C(=O)N[C@@H](CC(C)C)C(=O)N[C@H](C#N)Cc3cn(C)cn3)cc12` [Compound 227, N-[(1S)-1-[[(1S)-1-cyano-2-(1-methylimidazol-4-yl)ethyl]carbamoyl]-3-methyl-butyl]-4-methoxy-1H-indole-2-carboxamide] has an EC50 of over 30000 nM. For `CC(C)C[C@H](NC(=O)CC(C)(O)c1ccc(Cl)cc1)C(=O)N[C@H](C#N)C[C@@H]1CCNC1=O` (single isomer, unassigned) [365 (Isomer 2)], the EC50 was 2000 to 10000 nM. Compound `CC(C)C[C@H](NC(=O)c1nc2ncccc2[nH]1)C(=O)N[C@H](C#N)C[C@@H]1CCNC1=O` [Compound 131, N-[(1S)-1-[[(1S)-1-cyano-2-[(3S)-2-oxopyrrolidin-3-yl]ethyl]carbamoyl]-3-methyl-butyl]-1H-imidazo[4,5-b]pyridine-2-carboxamide] has an EC50 of under 2000 nM.
